Results as given in patent publication US8168650B2, “Therapeutic uses of bicyclic ligands of sigma 2 receptor” (priority 2006, dated 2012).
Structures can show the parent of a compound that is named as a salt. Where two headings read alike, the source gives them in different places. Peptide text beside a SMILES is read from it. * marks the point of attachment. Cbz = O=C(OCc1ccccc1)*; CH2F = FC*

What was measured:
[1] = system: Panc-02 cells; assay: Caspase inhibitors on sigma-2 receptor ligand-induced apoptosis in Panc-02 cells; assay type: cell-based, mouse
Procedure: (§1) Tumor cells were seeded at a density of approximately 0.2×10^6 cells per well in 12-well plates in 1.0 ml culture medium. Cells were split and pre-incubated at 37° C. in humidified 5% CO2 for more than 24 hours (Panc-02) and 48 hours (CFPAC-1, AsPC-1, Panc-1) to insure uniform growth conditions. Compounds were dissolved in DMSO and added to the culture medium at the concentrations indicated. The final concentration of DMSO in the cell culture medium was less than 1%. The cells were then incubated for 24 hours at 37° C. in humidified 5% CO2. The extent of apoptosis was subsequently measured as previously reported (Guelen, L., et al., Oncogene 2004, 23: 1153-1165). Briefly, staining was performed on trypsin-EDTA treated cultures that had been fixed with 1% paraformaldehyde and 90% methanol. Cell pellets were resuspended in TUNEL reagent (APO-BRDU kit, San Diego, Calif.) or cleaved caspase-3 antibody (Cell Signaling Technology, Inc. Boston, Mass.) and incubated overnight at room temperature (TUNEL) or 4° C. (cleaved caspase-3). After washing, cells were resuspended in fluorescein antibody or 7-AAD buffer and incubated for 1 hour at room temperature. Cell-associated fluorescence was determined using a flow cytometry (FACScan, BD Biosciences) and analyzed with CellQuest software (BD Biosciences).
(§2) At the highest dose tested (10 μM), all sigma-2 receptor ligands induced an additional 10-20% of the cells to undergo apoptosis (FIG. 15A). […] The pan-caspase inhibitor (Z-VAD-fmk) and caspase-3/7 inhibitor (DEVD-CHO) prevented sigma-2 receptor ligand-induced apoptosis in panc-02 cells, while the caspase-1 inhibitor (YVAD-CHO) had no effect (FIG. 15B).

[2] = system: EMT-6 cells; assay: TUNEL assay, enhancement of Dox-induced apoptosis in EMT-6 cells; assay type: cell-based, mouse; settings: EMT-6, Dox 30 nM alone
Procedure: In these experiments, a TUNEL assay was used to detect apoptotic cells with damaged DNA strands. […] Furthermore, EMT-6 cells treated with Dox at 30 nM yielded only 10% TUNEL-positive cells. However, when EMT-6 cells were treated with 2 μM WC-II-26 plus 30 nM Dox, the percentage of TUNEL-positive cells rose to 43.3%.

[3] = system: EMT-6 cells; assay: Colony formation assay on Doxorubicin-treated EMT-6 cells; assay type: cell-based, mouse
Procedure: This Example illustrates colony formation assay on Doxorubicin (“Dox”)-treated EMT-6 cells in the presence or absence of 2 μM WC-II-26. The structures of the sigma ligands used in this and subsequent examples are illustrated in FIG. 5 and FIG. 6.

[4] = system: EMT-6 cells; settings: EMT-6, 1 h pre-incubation with inhibitor (100 μM); for effect on cell death / cytotoxic effects induced by the three σ2 selective ligands: MTS assay
Procedure: To determine the effect of blocking the caspase-dependent apoptotic pathway on sigma ligand-induced cell killing, the caspase inhibitors, Z-VAD-FMK or Z-DEVD-FMK (Calbiochem, San Diego, Calif.) were added to the culture medium 1 hour before the sigma ligands, and the MTS assay performed as described above.

[5] = target: T1, sigma-2 receptors (Mus musculus, UniProt Q8VD00); assay: Saturation binding (Scatchard analysis) of [3H]RHM-1 in Panc-02 tumor allograft membrane homogenates
T1 construct: Membrane homogenates were prepared from ˜400 mg Panc-02 mouse tumor allografts; from tissue; host or cells: Panc-02 mouse pancreatic tumor allografts (membrane homogenates)
T1 sequence (Q8VD00 1-176): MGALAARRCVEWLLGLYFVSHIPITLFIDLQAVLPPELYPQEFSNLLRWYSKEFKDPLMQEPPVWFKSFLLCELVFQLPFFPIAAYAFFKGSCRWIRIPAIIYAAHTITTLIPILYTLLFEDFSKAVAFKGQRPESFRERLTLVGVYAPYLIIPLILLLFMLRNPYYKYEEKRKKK
Procedure: Membrane homogenates were prepared from ˜400 mg Panc-02 mouse tumor allografts, which were removed from tumor bearing mice and frozen on dry ice immediately and stored at −80° C. until used. Before homogenization, the tumor allografts were allowed to thaw slowly on ice. Tissue homogenization was carried out at 4° C. using a Potter-Elvehjem tissue grinder at a concentration of 1 g of tissue/ml of 50 mM Tris-HCl at pH 8.0. The crude membrane homogenate was then transferred to a 50 ml centrifuge tube and resuspended to a concentration of 200 mg of tissue/ml of 50 mM Tris-HCl. Additional homogenization was accomplished using an Ultra-Turrax T8 polython homogenizer (IKA Works, Inc, Wilmington, N.C.). The final homogenate was then centrifuged for 10 min at 1000 g, the pellet discarded and the supernatant mixed by vortexing and stored at −80° C. until used. The protein concentration of the suspension was determined (DC protein assay, Bio-Rad, Hercules, Calif.) and averaged ˜10 mg of protein/ml of stock solution. […] The concentrations of the radioligand ranged from 0.1-18 nM. […] Each filter was washed with 200 μl of ice-cold wash buffer for a total of three washes. […] The equilibrium dissociation constant (Kd) and maximum number of binding sites (BBmax) were determined by a linear regression analysis of the transformed data using the method of Scatchard.
Data from saturation radioligand binding studies was transformed to determine the Hill coefficient, nH, defined as: […]
In these experiments, direct saturation binding studies were carried out using [^3H]RHM-1 with membrane homogenates of PancO2 tumor allografts.

[6] = system: CFPAC-1; assay: Apoptosis in CFPAC-1 cells; assay type: cell-based, human; settings: CFPAC-1, highest dose tested
Procedure: as §1, with “Biosciences). […]” for “Biosciences).”

[7] = system: pancreatic cancer cell lines (Panc-02, CFPAC-1, AsPC-1, Panc-1); assay: Apoptosis in pancreas cancer cell lines (TUNEL / cleaved caspase-3, flow cytometry); assay type: cell-based, mouse, human; settings: all cell lines tested with the exception of CFPAC-1
Procedure: as §1, §2

[8] = membrane homogenates of Panc-02 tumor allografts

COc1ccc(C)cc1NC(=O)OC1CC2CCCC(C1)N2CCCCCCNS(=O)(=O)c1cccc2c(N(C)C)cccc12 (stereo not drawn) (as salt: oxalate) [Compound 9, N-(9-(6-(5-Dimethylamino-1-naphthalenesulfonamido))hexyl)-9-azabicyclo[3.3.1]-nonan-3α-yl-N-(2-methoxy-5-methylphenyl)carbamate oxalate]
melting point: 162 to 163 °C

CC(=O)N[C@@H](CC(=O)O)C(=O)N[C@@H](CCC(=O)O)C(=O)N[C@H](C(=O)N[C@H](C=O)CC(=O)O)C(C)C [DEVD-CHO]
effect on sigma-2 receptor ligand-induced apoptosis [1]: prevented

COc1cccc2c1C(=O)c1c(O)c3c(c(O)c1C2=O)C[C@@](O)(C(=O)CO)C[C@@H]3O[C@H]1C[C@H](N)[C@H](O)[C@H](C)O1 [Dox, Doxorubicin, reference compound]
TUNEL-positive cells [2]: 10%
number of colonies formed compared to control cells ([3]; EMT-6, 10, 20, and 30 nM of Dox alone): not changed significantly
decrease in colony forming efficiency ([3]; EMT-6, Dox 40 nM alone): about 25%

CC(=O)N[C@@H](Cc1ccc(O)cc1)C(=O)N[C@H](C(=O)N[C@@H](C)C(=O)N[C@H](C=O)CC(=O)O)C(C)C [YVAD-CHO]
effect on sigma-2 receptor ligand-induced apoptosis [1]: no effect

COC(=O)C[C@H](NC(=O)[C@H](C)NC(=O)[C@@H](NC(=O)OCc1ccccc1)C(C)C)C(=O)CF [Z-VAD-FMK] (Cbz-Val-Ala-Asp(OMe)-CH2F)
effect on DNA fragmentation after treatment with the three σ2 selective ligands [4]: partially blocked
effect on cell death / cytotoxic effects induced by the three σ2 selective ligands [4]: partially, but not completely, blocked
effect on cell death / cytotoxic effects induced by the three σ2 selective ligands ([4]; listed as Z-VADFMK): partially blocked
effect on sigma-2 receptor ligand-induced apoptosis [1]: prevented

COc1cc2c(cc1OC)CN(CCCCNC(=O)c1cc(C)ccc1OC)CC2 [[3H]RHM-1]
Bmax (maximum number of binding sites) [5, 8]: 1250 fmol/mg protein
Kd [5, 8]: 4.88 nM
Hill coefficient nH (mean) ([5]; saturation binding, Panc-02 tumor allografts): close to unity

CC(C)=CCN1CCC2(C)c3cc(O)ccc3CC1C2C (stereo not drawn) [pentazocine, reference compound]
increase in apoptosis [6]: 8-10%
toxicity to pancreas cancer cell lines [7]: minimal toxicity
